Activity calls are given as the source filed them.
Columns and labels:
Mus musculus [1] = test: Anticonvulsant activity in ip dosed albino mouse assessed as protection against 50 mA current-induced seizure by maximal electroshock seizure test; assay type: functional
Mus musculus [2] = organism: Mus musculus; test: animal or person; details: Swiss, ip
Description: Anticonvulsant activity in ip dosed Swiss mouse assessed as protection against current-induced seizure by maximal electroshock seizure test

Mus musculus [3] = test: Antiallodynic activity in mouse model of OXA-induced peripheral neuropathy assessed as mean latency time to nocifensive response at 15 mg/kg, ip administered after 7 days of OXA stimulation and measured after 1 hr by cold plate method (reference value: 57.64 +/- 1.267 sec); assay type: functional
Mus musculus [4] = test: Antiallodynic activity in mouse model of OXA-induced peripheral neuropathy assessed as mean latency time to nocifensive response at 15 mg/kg, ip administered after 3 hrs of OXA stimulation and measured after 1 hr by cold plate method (reference value: 59.76 +/- 0.16 sec); assay type: functional
[5] = Toxicity in mouse assessed as lethality at 50 mg/kg, ip; assay type: organism-based; details: in vivo
[6] = Antioxidant activity assessed as DPPH radical scavenging activity at 125 to 1000 uM by microplate method; assay type: functional; details: dose microM 125-1000
in vitro [7] = details: mouse, microsomes
Description: Metabolic stability in mouse microsome assessed as half life

in vitro [8] = details: mouse, microsomes; remark: listed apart in the source
Description: Metabolic stability in mouse microsome assessed as intrinsic clearance

[9] = Protection index, ratio of TD50 for toxicity in ip dosed mouse to ED50 for anticonvulsant activity in ip dosed mouse; assay type: organism-based; details: in vivo, read-out: PI
[10] = Toxicity in ip dosed mouse assessed as motor impairment by rotarod test; assay type: organism-based; details: in vivo
[11] = target: T1, 5-hydroxytryptamine receptor 1A (Homo sapiens, UniProt P08908); test: Binding affinity to 5-HT1A (unknown origin)
T1 sequence (P08908 whole entry): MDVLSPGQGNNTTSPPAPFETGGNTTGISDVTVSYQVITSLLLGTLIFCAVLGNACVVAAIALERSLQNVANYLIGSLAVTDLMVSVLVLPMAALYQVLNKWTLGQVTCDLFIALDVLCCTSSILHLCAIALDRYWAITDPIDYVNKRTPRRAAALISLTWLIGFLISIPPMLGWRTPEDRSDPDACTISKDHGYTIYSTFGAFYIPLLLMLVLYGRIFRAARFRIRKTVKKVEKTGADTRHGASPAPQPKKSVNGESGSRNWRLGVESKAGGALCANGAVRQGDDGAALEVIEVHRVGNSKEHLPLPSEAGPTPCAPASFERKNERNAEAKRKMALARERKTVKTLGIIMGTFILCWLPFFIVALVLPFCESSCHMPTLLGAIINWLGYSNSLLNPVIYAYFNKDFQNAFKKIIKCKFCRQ

Mus musculus [12] = test: Antiallodynic activity in mouse model of OXA-induced peripheral neuropathy assessed as mean paw withdrawal threshold at 15 mg/kg, ip administered after 3 hrs of OXA stimulation and measured after 1 hr by Von-frey method (reference value: 3.144 +/- 0.169 g); assay type: functional
Mus musculus [13] = test: Anticonvulsant activity in ip dosed mouse assessed as protection against current-induced seizure by maximal electroshock seizure test; assay type: functional
Mus musculus [14] = test: Antiallodynic activity in mouse model of OXA-induced peripheral neuropathy assessed as mean paw withdrawal threshold at 15 mg/kg, ip administered after 7 days of OXA stimulation and measured after 1 hr by Von-frey method (reference value: 3.192 +/- 0.181 g); assay type: functional
[15] = Drug metabolism in mouse microsome assessed as formation of monohydroxylated metabolite; assay type: ADME; details: microsomes

## Cc1cccc(C)c1OCC(C)N (racemic) [MEXILETINE]
Mus musculus [1]
  ED50: 1.2 mg/kg
Mus musculus [2]
  ED50: 11.9 mg/kg

## Cc1cc(C)c(OCCCN[C@@H]2CCCC[C@H]2O)c(C)c1 (relative stereo)
Mus musculus [3]
  Time: 7.09 s
Mus musculus [4]
  Time: 19.35 s
[5]
  Activity: Non-Toxic
[6]
  Activity: inactive
In vitro [7]
  half-life: 27.2 min
In vitro [8]
  microsomal CLint: 128 µL/min/mg
[9]
  selectivity ratio: 2.9
[10]
  TD50: 42.9 mg/kg
[11]
  Ki: 2.37 µM
Mus musculus [12]
  Activity: 1.999 g
Mus musculus [13]
  ED50: 14.8 mg/kg
Mus musculus [14]
  Activity: 1.958 g
[15]
  Drug metabolism: Metabolite_Detected
